molecular target: T1, PDE 7 (phosphodiesterase VII) (Homo sapiens, UniProt Q13946); assay: PDE 7 inhibiting effect (Biological Test 1; 3H-cAMP hydrolysis by PDE 7 active fraction from MOLT-4 cells); format: biochemical; conditions: PDE 7 fraction from MOLT-4 cells; 0.064 μM cAMP, 10 μM rolipram present, 2 hours at 25° C.; read-out: PDE 7 inhibiting activities, IC50
T1 construct: endogenous in cells; host or cells: MOLT-4 (ATCC CRL-1582), soluble fraction, HiTrap Q column, fraction eluting at about 350 mM NaCl
T1 sequence (Q13946 whole entry): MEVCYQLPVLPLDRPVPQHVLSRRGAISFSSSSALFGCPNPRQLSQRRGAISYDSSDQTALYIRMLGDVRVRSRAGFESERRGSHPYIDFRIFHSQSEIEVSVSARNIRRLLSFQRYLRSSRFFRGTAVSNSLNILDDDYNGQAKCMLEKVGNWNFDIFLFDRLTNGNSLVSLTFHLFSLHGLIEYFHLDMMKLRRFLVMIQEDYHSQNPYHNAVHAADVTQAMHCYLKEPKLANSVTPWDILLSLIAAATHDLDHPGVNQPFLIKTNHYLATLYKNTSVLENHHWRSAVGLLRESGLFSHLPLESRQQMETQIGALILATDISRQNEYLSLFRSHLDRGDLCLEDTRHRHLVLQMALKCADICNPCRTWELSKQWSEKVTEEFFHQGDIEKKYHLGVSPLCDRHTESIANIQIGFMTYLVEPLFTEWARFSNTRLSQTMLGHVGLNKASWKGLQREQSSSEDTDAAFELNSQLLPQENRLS
Procedure: The PDE 7 (phosphodiesterase VII) inhibiting effect of the compounds of the present invention was performed by the following method, which was modified assay method described in Biochemical. Pharmacol. 48(6), 1219-1223 (1994).
(1) The active fraction of PDE 7 (phosphodiesterase VII) was obtained. That is, MOLT-4 (obtainable from ATCC as ATCC No. CRL-1582), which was cell line of human acute lymphoblastic lymphoma T cells, was incubated in RPMI1640 culture medium containing 10% fetal bovine serum to obtain 5×10^8 MOLT-4 cells. The cells were collected by centrifugation and suspended with 10 mL of buffer solution A [25 mM of tris-HCl, 5 mM of 2-mercaptoethnol, 2 mM of benzamidine, 2 mM of EDTA, 0.1 mM of 4-(2-aminoethyl) benzensulfonyl hydrochloride; pH 7.5], then homogenized by Polytron® homogenizer. The homogenate were centrifuged under 25,000×G for 10 minutes at 4° C. The supernatant was separated and thus obtained supernatant was further centrifuged under 100,000×G for 60 minutes at 4° C., and then filtrated with 0.2 μm filter to obtain the soluble fraction. (2) The obtained soluble fraction was filled in equilibrium HiTrap Q column (5 mL×2) with buffer solution A, and phosphodiesterase fractions were eluted by 300 mL of buffer solution A with linear gradient from 0 to 0.8 M NaCl concentration. 5 ml each of 60 eluents were collected, and each eluents were examined for cyclic AMP metabolic activities of phosphodiesterase. The fraction eluting with about 350 mM NaCl concentration parts, where metabolic activities were not inactivated by 10 μM of rolipram (selective inhibitor for phosphodiesterase IV) and 10 μM of milrinone (selective inhibitor for phosphodiesterase III), were collected as storage solution for using to test PDE 7 inhibiting effect. […] Further, SEPHADEX®-QAE (cross-linked dextran gel) was added to the obtained supernatant and the mixture was leaved at rest for 5 minutes, then, the radioactivity of the solution was measured. […]

Structure (SMILES)	IC50 [nM]
COc1ccccc1-c1nn2c(C)nc(C3CCCCC3)c2c(=O)[nH]1 [Compound 12, 5-Cyclohexyl-2-(2-methoxyphenyl)-7-methylimidazo-[5,1-f][1,2,4]triazin-4(3H)-one]	490
COc1ccccc1-c1nc2c(C)nc(C3CCCCC3)n2c(=O)[nH]1 [Compound 8, 6-Cyclohexyl-2-(2-methoxyphenyl)-8-methylimidazo[1,5-a][1,3,5]-triazin-4(3H)-one]	340
COc1cc(N2CCN(C)CC2)ccc1-c1nc2c(C)nc(C3CCCCC3)n2c(=O)[nH]1 [Compound 11, 6-Cyclohexyl-2-[2-methoxy-4-(4-methyl-1-piperadinyl)phenyl]-8-methylimidazo[1,5-a][1,3,5]triazin-4(3H)-one]	55
